The target of assay [1] is T1, human glucose-dependent insulinotropic peptide receptor (GIPR) (Homo sapiens, UniProt P48546).
T1 construct: expressed in transfected cells; host or cells: HEK293 cells or CHO cells
T1 sequence (P48546 22-466): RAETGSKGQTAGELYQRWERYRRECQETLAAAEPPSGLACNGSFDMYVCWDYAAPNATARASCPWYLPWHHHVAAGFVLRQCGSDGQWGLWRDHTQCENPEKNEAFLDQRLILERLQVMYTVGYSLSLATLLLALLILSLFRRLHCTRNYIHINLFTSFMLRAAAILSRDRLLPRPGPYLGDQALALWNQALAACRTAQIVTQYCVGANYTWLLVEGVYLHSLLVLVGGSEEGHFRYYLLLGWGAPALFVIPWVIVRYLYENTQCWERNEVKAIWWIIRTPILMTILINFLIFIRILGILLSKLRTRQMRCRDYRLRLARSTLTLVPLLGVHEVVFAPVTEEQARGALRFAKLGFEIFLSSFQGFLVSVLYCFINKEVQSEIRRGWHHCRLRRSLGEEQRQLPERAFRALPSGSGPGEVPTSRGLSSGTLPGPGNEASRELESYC
As to the kind of experiment: cAMP assay, human GIPR cells. The format is cell-based. The following applies: Table 9, bis-lipidated peptides. On the procedure:
(§1) Sample dilutions are made in duplicate.
(§2) A frozen cryo-vial of cells expressing the receptor of interest is thawed rapidly in a water-bath, transferred to pre-warmed assay buffer and spun at 240×g for 5 minutes. Cells are re-suspended in assay buffer at a batch-dependent optimized concentration (e.g. hGCGR cells at 2×10^5 cells/ml, hGLP-1R and hGIPR cells at 1×10^5 cells/ml).
(§3) To this, 5 μL cell suspension is added and the plates incubated at room temperature for 30 minutes.
(§4) cAMP levels are measured using a commercially available cAMP dynamic 2 HTRF kit (Cisbio, Cat #62AM4PEJ), following the two step protocol as per manufacturer's recommendations. In brief; anti-cAMP cryptate (donor fluorophore) and cAMP-d2 (acceptor fluorophore) are made up separately by diluting each 1/20 in conjugate & lysis buffer provided in the kit. 5 μL anti-cAMP cryptate is added to wells of the assay plate, and 5 μL cAMP-d2 is added to wells except non-specific binding (NSB) wells, to which conjugate and lysis buffer are added. […] EC50 values of the synthetic peptides determined in cAMP assays are then determined.
(§5) Data is transformed to % Delta F as described in the manufacturer's guidelines and analyzed by 4-parameter logistic fit to determine EC50 values. […] To compare the balance of activities at the GLP-1R and GCGR between different peptides and across different conditions, these can be correlated, where the EC50's are related to those of comparator peptides.

Assay [2] has as its target T2, human glucagon receptor (GCGR) (Homo sapiens, UniProt P47871).
T2 construct: expressed in transfected cells; host or cells: HEK293 cells or CHO cells
As to the kind of experiment: cAMP assay, human GCGR cells. The settings on record: Table 9, bis-lipidated peptides. The format is cell-based. The protocol: as §1, §2, §3, §4, §5

The mark [3] stands for this setting: first replicate, read-out: Primary assay EC50 GIP-R (n1).
Setting [4] is: second replicate, read-out: Primary assay EC50 GIP-R (n2).
[5] abbreviates: first replicate, read-out: Primary assay EC50 Gluc-R (n1).
Setting [6] is: second replicate, read-out: Primary assay EC50 Gluc-R (n2).

Like-named read-outs stand apart in the source and are kept apart here. Numbered stars: 1 amine (or outer) side, 2 acyl side, 3 side chain; on linkers, the order of the positions; unused ones are H or OH. Square brackets hold non-standard residues; d marks the D form. Side chains are listed from the residue outwards. Peptide text beside a SMILES is read from it. * marks the point of attachment. γGlu = O=C(O)[C@H](CCC(=O)[*:2])N[*:1]; αMeF = C[C@](N)(Cc1ccccc1)C(=O)O; αMeK = C[C@](N)(CCCCN)C(=O)O; Lauroyl = CCCCCCCCCCCC(=O)*; αMeS = C[C@](N)(CO)C(=O)O; AEEA = NCCOCCOCC(=O)O; Aib = CC(C)(N)C(=O)O

T2 sequence (P47871 26-477): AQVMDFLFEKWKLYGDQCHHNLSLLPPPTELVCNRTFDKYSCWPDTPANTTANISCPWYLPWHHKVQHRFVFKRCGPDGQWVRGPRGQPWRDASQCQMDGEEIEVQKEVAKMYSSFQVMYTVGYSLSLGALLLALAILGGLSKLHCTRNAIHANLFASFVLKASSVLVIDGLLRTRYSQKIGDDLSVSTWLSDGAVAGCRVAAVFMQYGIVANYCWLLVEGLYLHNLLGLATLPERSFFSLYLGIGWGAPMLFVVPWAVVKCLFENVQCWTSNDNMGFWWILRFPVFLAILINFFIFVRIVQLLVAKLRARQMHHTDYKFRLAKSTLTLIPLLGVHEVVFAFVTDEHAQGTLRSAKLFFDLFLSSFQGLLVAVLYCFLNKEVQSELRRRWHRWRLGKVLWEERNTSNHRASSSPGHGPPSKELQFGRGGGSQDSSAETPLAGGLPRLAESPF

In the case of `CCCCCCCCCCCC(=O)N[C@@H](CCC(=O)NCCOCCOCC(=O)NCCOCCOCC(=O)NCCCC[C@H](NC(=O)[C@H](C)NC(=O)[C@@H](NC(=O)[C@H](Cc1ccccc1)NC(=O)[C@H](CCC(=O)O)NC(=O)[C@](C)(CCCCN)NC(=O)[C@H](C)NC(=O)[C@H](C)NC(=O)[C@H](CCC(=O)O)NC(=O)CNC(=O)[C@H](CCC(=O)O)NC(=O)[C@H](CC(C)C)NC(=O)[C@H](Cc1ccc(O)cc1)NC(=O)[C@H](CO)NC(=O)[C@H](CO)NC(=O)[C@H](CCCCNC(=O)COCCOCCNC(=O)COCCOCCNC(=O)CC[C@H](NC(=O)CCCCCCCCCCC)C(=O)O)NC(=O)[C@H](CC(=O)O)NC(=O)[C@H](CO)NC(=O)[C@@H](NC(=O)[C@](C)(Cc1ccccc1)NC(=O)[C@H](CO)NC(=O)CNC(=O)[C@H](CCC(=O)O)NC(=O)C(C)(C)NC(=O)[C@@H](N)Cc1c[nH]cn1)[C@@H](C)O)[C@@H](C)CC)C(=O)N[C@H](C(=O)N[C@H](C(=O)N[C@@H](CCC(=O)O)C(=O)NCC(=O)NCC(N)=O)C(C)C)C(C)C)C(=O)O` [compound 257] (H-H[Aib]EGS[αMeF]TSDK([AEEA-AEEA-γGlu-Lauroyl])SSYLEGEAA[αMeK]EFIAK([AEEA-AEEA-γGlu-Lauroyl])VVEGG-NH2), the EC50 in assay [1] (setting [3]), in assay [1] (setting [4]), in assay [2] (setting [5]) and in assay [2] (setting [6]) was not below 22.8 nM throughout.

As to `CCCCCCCCCCCC(=O)N[C@@H](CCC(=O)NCCOCCOCC(=O)NCCOCCOCC(=O)NCCCC[C@H](NC(=O)[C@H](CC(=O)O)NC(=O)[C@H](CO)NC(=O)[C@@H](NC(=O)[C@](C)(Cc1ccccc1)NC(=O)[C@H](CO)NC(=O)CNC(=O)[C@H](CCC(=O)O)NC(=O)C(C)(C)NC(=O)[C@@H](N)Cc1c[nH]cn1)[C@@H](C)O)C(=O)N[C@@H](CO)C(=O)N[C@@H](CO)C(=O)N[C@@H](Cc1ccc(O)cc1)C(=O)N[C@@H](CC(C)C)C(=O)N[C@@H](CCC(=O)O)C(=O)NCC(=O)N[C@@H](CCC(=O)O)C(=O)N[C@@H](C)C(=O)N[C@@H](C)C(=O)N[C@@](C)(CCCCN)C(=O)N[C@@H](CCC(=O)O)C(=O)N[C@@H](Cc1ccccc1)C(=O)N[C@H](C(=O)N[C@@H](C)C(=O)N[C@@H](Cc1c[nH]c2ccccc12)C(=O)N[C@@H](CCCCNC(=O)COCCOCCNC(=O)COCCOCCNC(=O)CC[C@H](NC(=O)CCCCCCCCCCC)C(=O)O)C(=O)N[C@H](C(=O)N[C@@H](CCC(=O)O)C(=O)NCC(=O)NCC(N)=O)C(C)C)[C@@H](C)CC)C(=O)O` [compound 258] (H-H[Aib]EGS[αMeF]TSDK([AEEA-AEEA-γGlu-Lauroyl])SSYLEGEAA[αMeK]EFIAWK([AEEA-AEEA-γGlu-Lauroyl])VEGG-NH2), the EC50 in assay [1] (setting [3]), in assay [1] (setting [4]), in assay [2] (setting [5]) and in assay [2] (setting [6]) was not below 22.3 nM throughout.

`CCCCCCCCCCCC(=O)N[C@@H](CCC(=O)NCCOCCOCC(=O)NCCOCCOCC(=O)NCCCC[C@H](NC(=O)[C@H](CO)NC(=O)[C@](C)(CO)NC(=O)[C@@H](NC(=O)[C@H](CC(=O)O)NC(=O)[C@H](CO)NC(=O)[C@@H](NC(=O)[C@](C)(Cc1ccccc1)NC(=O)[C@H](CO)NC(=O)CNC(=O)[C@H](CCC(=O)O)NC(=O)C(C)(C)NC(=O)[C@@H](N)Cc1c[nH]cn1)[C@@H](C)O)C(C)C)C(=O)N[C@@H](CC(C)C)C(=O)N[C@@H](CCC(=O)O)C(=O)NCC(=O)N[C@@H](CCC(=O)O)C(=O)N[C@@H](C)C(=O)N[C@@H](C)C(=O)N[C@@](C)(CCCCN)C(=O)N[C@@H](CCC(=O)O)C(=O)N[C@@H](Cc1ccccc1)C(=O)N[C@H](C(=O)N[C@@H](CCCCNC(=O)COCCOCCNC(=O)COCCOCCNC(=O)CC[C@H](NC(=O)CCCCCCCCCCC)C(=O)O)C(=O)N[C@@H](Cc1c[nH]c2ccccc12)C(=O)N[C@H](C(=O)N[C@H](C(=O)N[C@@H](CCC(=O)O)C(=O)NCC(=O)NCC(N)=O)C(C)C)C(C)C)[C@@H](C)CC)C(=O)O` [compound 262] (H-H[Aib]EGS[αMeF]TSDV[αMeS]SK([AEEA-AEEA-γGlu-Lauroyl])LEGEAA[αMeK]EFIK([AEEA-AEEA-γGlu-Lauroyl])WVVEGG-NH2; N-terminus assumed): the 50% effective concentration (EC50) in assay [1] (setting [3]), in assay [1] (setting [4]), in assay [2] (setting [5]) and in assay [2] (setting [6]) was not below 22.5 nM throughout.

For the origin of these results see patent publication US20210221866A1, “PROTEASE-RESISTANT LIPIDATED GLP-1 ANALOGS” (MEDIMMUNE LIMITED, priority 2015, published 2021).
